Reference: ChEMBL document CHEMBL1177720, “Selective hexapeptide agonists and antagonists for human complement C3a receptor” (J Med Chem, 2010)
Active and inactive are the calls of the source. The calls are words filed in the database; no cut-off is given here. Square brackets hold non-standard residues; d marks the D form. Peptide text beside a SMILES is read from it. Orn = NCCC[C@H](N)C(=O)O

Legend:
[1] = target: T1, C5a anaphylatoxin chemotactic receptor 1 (Homo sapiens) (UniProt P21730); assay: Displacement of […] from C5a receptor in human PBMC at 1 mM by scintillation counting
T1 sequence (whole entry): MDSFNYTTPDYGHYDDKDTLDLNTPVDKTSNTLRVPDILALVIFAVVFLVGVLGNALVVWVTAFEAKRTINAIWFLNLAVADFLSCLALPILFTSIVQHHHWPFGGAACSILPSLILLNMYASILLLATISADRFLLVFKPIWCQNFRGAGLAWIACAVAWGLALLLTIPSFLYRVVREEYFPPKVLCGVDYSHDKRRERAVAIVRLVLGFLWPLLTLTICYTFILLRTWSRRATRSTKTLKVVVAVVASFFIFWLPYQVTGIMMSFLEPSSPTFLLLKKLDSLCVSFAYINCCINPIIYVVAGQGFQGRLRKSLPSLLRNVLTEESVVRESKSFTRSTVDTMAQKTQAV

[2] = target: T2, C3a anaphylatoxin chemotactic receptor (Homo sapiens, UniProt Q16581); assay: Agonist activity at human C3a receptor in human U937 cells assessed as induction of intracellular calcium release; assay type: functional, cell-based, U-937
T2 sequence (Q16581 whole entry): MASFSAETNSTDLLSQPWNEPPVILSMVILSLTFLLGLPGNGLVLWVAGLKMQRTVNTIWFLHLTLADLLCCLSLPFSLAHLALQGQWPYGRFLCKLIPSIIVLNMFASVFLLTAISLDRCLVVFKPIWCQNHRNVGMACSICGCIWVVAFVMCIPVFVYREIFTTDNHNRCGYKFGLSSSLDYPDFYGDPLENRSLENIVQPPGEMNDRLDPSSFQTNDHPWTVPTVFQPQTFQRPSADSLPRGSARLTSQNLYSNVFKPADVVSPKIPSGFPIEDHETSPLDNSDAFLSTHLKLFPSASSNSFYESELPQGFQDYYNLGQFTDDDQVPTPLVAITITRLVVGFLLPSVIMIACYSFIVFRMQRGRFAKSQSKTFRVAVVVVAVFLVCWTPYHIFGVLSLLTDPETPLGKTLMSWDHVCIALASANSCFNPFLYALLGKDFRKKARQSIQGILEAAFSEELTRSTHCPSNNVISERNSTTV

[3] = target: T2, C3a anaphylatoxin chemotactic receptor; assay: Displacement of [125I-C3a] from C3a receptor in human PBMC by scintillation counting; details: read-out: IC50
[4] = target: T3, C5a anaphylatoxin chemotactic receptor 1 (Homo sapiens, UniProt P21730); assay: Displacement of [125I-C5a] from C5a receptor in human PBMC by scintillation counting
T3 sequence (P21730 whole entry): T1 sequence (whole entry)

[5] = target: T4, C3a anaphylatoxin chemotactic receptor (Homo sapiens) (UniProt Q16581); assay: Agonist activity at human C3a receptor in human U937 cells assessed as induction of intracellular calcium release at 1 mM; assay type: functional, cell-based; details: U-937
T4 sequence (whole entry): T2 sequence (Q16581 whole entry)

[6] = target: T4, C3a anaphylatoxin chemotactic receptor (Homo sapiens); assay: Agonist activity at human C3a receptor in human U937 cells assessed as induction of intracellular calcium release at 10 uM; assay type: functional, cell-based; details: U-937
[7] = target: T4, C3a anaphylatoxin chemotactic receptor (Homo sapiens); assay: Displacement of [125I-C3a] from C3a receptor in human PBMC at 1 mM by scintillation counting

SMILES | Activity [1] | EC50 ([2]; read-out: EC50) [µM] | IC50 [3] [µM] | Activity [5] | further results
CC(C)C[C@H](NC(=O)[C@@H](NC(=O)[C@H](Cc1c[nH]c2ccccc12)NC(=O)[C@@H](N)Cc1c[nH]c2ccccc12)[C@@H](C)O)C(=O)N[C@@H](C)C(=O)N[C@@H](CCCNC(=N)N)C(=O)O (H-WWTLAR-OH) | inactive | 0.91 | 0.244 |  | 
CSCC[C@H](NC(=O)[C@@H]1CCCN1C(=O)[C@H](CCCCN)NC(=O)[C@H](Cc1ccccc1)NC(=O)[C@H](CO)NC(=O)[C@@H](N)Cc1ccc(O)cc1)C(=O)N1CCC[C@H]1C(=O)N[C@@H](CC(C)C)C(=O)N(C)[C@H](C)C(=O)N[C@@H](CCCN=C(N)N)C(=O)O |  | 0.13 | 0.013 |  | IC50 [4]: 2 µM
CC(C)C[C@H](NC(=O)[C@@H]1CCCN1C(=O)[C@H](CCCN)NC(=O)[C@@H](N)Cc1ccccc1)C(=O)N[C@@H](C)C(=O)N[C@@H](CCCNC(=N)N)C(=O)O (H-F[Orn]PLAR-OH) |  |  |  | inactive | 
CC(C)C[C@H](NC(=O)[C@H](C)NC(=O)[C@H](CC(C)C)NC(=O)[C@@H](N)Cc1cnc[nH]1)C(=O)N[C@@H](C)C(=O)N[C@@H](CCCNC(=N)N)C(=O)O (H-HLALAR-OH) | inactive |  | 6.3 | inactive | Activity [6]: inactive
CC(C)C[C@H](NC(=O)CNC(=O)[C@H](CC(C)C)NC(=O)[C@@H](N)Cc1cnc[nH]1)C(=O)N[C@@H](C)C(=O)N[C@@H](CCCNC(=N)N)C(=O)O (H-HLGLAR-OH) | inactive | 3.8 | 5.9 |  | 
CC(C)C[C@H](NC(=O)[C@@H]1CCCN1C(=O)[C@H](CCC(=O)O)NC(=O)[C@@H](N)Cc1ccccc1)C(=O)N[C@@H](C)C(=O)N[C@@H](CCCNC(=N)N)C(=O)O (H-FEPLAR-OH) |  |  |  | inactive | 
CC(C)C[C@H](NC(=O)[C@H](CC(=O)O)NC(=O)[C@H](C)NC(=O)[C@H](CC(C)C)NC(=O)[C@@H](NC(=O)[C@H](CC(C)C)NC(=O)[C@@H](N)Cc1cnc[nH]1)[C@@H](C)O)C(=O)N[C@@H](CC(C)C)C(=O)N[C@@H](CS)C(=O)N[C@@H](CS)C(=O)N[C@@H](CC(C)C)C(=O)N[C@@H](CO)C(=O)N[C@@H](CC(C)C)C(=O)N1CCC[C@H]1C(=O)N[C@@H](Cc1ccccc1)C(=O)O (H-HLTLADLLCCLSLPF-OH) |  | 1.8 | 0.25 |  | EC50 ([2]; read-out: pEC50 (converted)): 1.58 µM; IC50 [4]: 0.56 µM
CC(C)C[C@H](NC(=O)[C@@H]1CCCN1C(=O)[C@H](CCCCN)NC(=O)[C@@H](N)Cc1ccccc1)C(=O)N[C@@H](Cc1ccccc1)C(=O)N[C@@H](CCCNC(=N)N)C(=O)O (H-FKPLFR-OH) |  |  |  | inactive | 
CC[C@H](C)[C@H](NC(=O)[C@H](C)NC(=O)[C@H](CC(N)=O)NC(=O)[C@@H](NC(=O)[C@@H](NC(=O)[C@H](CCCNC(=N)N)NC(=O)[C@H](CCCCN)NC(=O)[C@H](C)NC(=O)[C@H](CCC(=O)O)NC(=O)[C@H](Cc1ccccc1)NC(=O)[C@H](C)NC(=O)[C@@H](NC(=O)[C@@H](NC(=O)[C@@H](N)Cc1c[nH]c2ccccc12)C(C)C)[C@@H](C)O)[C@@H](C)O)[C@@H](C)CC)C(=O)N[C@@H](Cc1c[nH]c2ccccc12)C(=O)O (H-WVTAFEAKRTINAIW-OH) |  | 24 | 1.6 |  | IC50 [4]: 1.7 µM
CC(C)C[C@H](NC(=O)[C@@H]1CCCN1C(=O)[C@@H](N)Cc1ccc(O)cc1)C(=O)N1CCC[C@H]1C(=O)N[C@@H](CCCNC(=N)N)C(=O)O (H-YPLPR-OH) | inactive |  |  | inactive | Activity [7]: inactive; Activity [6]: inactive
CC(C)C[C@H](NC(=O)CNC(=O)[C@H](CC(C)C)NC(=O)[C@@H](N)Cc1ccccc1)C(=O)N[C@@H](C)C(=O)N[C@@H](CCCNC(=N)N)C(=O)O (H-FLGLAR-OH) | inactive | 0.52 | 0.157 |  | 
CC(C)C[C@H](NC(=O)[C@H](Cc1ccccc1)NC(=O)[C@H](CCCCN)NC(=O)[C@@H](N)Cc1ccccc1)C(=O)N[C@@H](C)C(=O)N[C@@H](CCCNC(=N)N)C(=O)O (H-FKFLAR-OH) |  |  |  | inactive | 
C[C@H](NC(=O)[C@H](Cc1ccccc1)NC(=O)[C@@H]1CCCN1C(=O)[C@H](CCCCN)NC(=O)[C@@H](N)Cc1ccccc1)C(=O)N[C@@H](CCCNC(=N)N)C(=O)O (H-FKPFAR-OH) |  |  |  | inactive | 
